From patent US20210101881A1 (Ancureall Pharmaceutical (Shanghai) Co., Ltd., priority 2018, published 2021)
Where two headings read alike, the source gives them in different places.

Columns and labels:
[1] = molecular target: T1, CDK9/CyclinK kinase (Homo sapiens, UniProt P50750); test: CDK9 protein kinase activity, ADP-Glo CDK9/CyclinK kinase detection kit; format: biochemical; details: read-out: IC50 of the compound for inhibiting CDK9 protein kinase activity, CDK9/CyclinK kinase
T1 construct: purchased Promega Corporation V4105
T1 sequence (P50750 whole entry): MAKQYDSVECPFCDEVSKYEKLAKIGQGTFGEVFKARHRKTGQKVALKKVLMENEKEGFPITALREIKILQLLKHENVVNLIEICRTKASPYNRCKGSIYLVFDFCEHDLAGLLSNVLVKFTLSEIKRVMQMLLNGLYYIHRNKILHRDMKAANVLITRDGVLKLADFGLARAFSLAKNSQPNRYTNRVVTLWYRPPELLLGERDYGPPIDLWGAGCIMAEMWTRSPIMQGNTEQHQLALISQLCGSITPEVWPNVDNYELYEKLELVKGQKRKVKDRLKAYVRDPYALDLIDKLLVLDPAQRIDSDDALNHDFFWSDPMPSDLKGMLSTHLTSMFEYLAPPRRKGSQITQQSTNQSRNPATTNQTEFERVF
T1 sequence (O75909 whole entry partner): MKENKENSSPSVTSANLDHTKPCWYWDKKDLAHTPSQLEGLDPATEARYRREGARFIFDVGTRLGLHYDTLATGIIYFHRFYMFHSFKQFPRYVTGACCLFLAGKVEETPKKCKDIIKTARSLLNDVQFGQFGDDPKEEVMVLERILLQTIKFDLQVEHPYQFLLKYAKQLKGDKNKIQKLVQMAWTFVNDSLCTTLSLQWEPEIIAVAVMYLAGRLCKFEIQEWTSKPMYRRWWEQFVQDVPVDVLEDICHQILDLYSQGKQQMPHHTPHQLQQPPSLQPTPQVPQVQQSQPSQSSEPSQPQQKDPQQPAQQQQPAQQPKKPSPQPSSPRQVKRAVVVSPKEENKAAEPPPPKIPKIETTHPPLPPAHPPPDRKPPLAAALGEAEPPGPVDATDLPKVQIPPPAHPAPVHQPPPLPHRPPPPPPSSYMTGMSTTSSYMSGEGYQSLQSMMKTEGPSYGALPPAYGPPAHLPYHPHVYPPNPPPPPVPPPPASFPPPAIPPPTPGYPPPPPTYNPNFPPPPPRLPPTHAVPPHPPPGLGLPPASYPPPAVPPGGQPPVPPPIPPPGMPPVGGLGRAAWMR
Experimental: Measurement of CDK9 Protein Kinase Activity
The present compound was dissolved in DMSO (Sigma Aldrich), and the initial concentration of the compound was 1000 nM. A two-fold serial dilution was carried out. The specific operation of CDK9 kinase activity determination was carried out according to the ADP-Go™ CDK9/CyclinK kinase detection experimental procedure. […] Each test sample was tested in duplicate, and the test was repeated once. The inhibitory activity (IC50) of the compound on CDK9 protein kinase was calculated from the dose-inhibition curve of the compound.

[2] = tested on: AGS; test: Growth inhibition of CDK9-positive tumor cell line in vitro; format: cell-based; details: Human stomach cancer, read-out: Inhibitory activity (IC50) on growth in vitro, AGS
Experimental: (§1) Measurement of the Inhibitory Activity of the Present Compound on the Growth of Various Types of CDK9-Positive Tumor Cell Lines In Vitro
(§2) The inventors selected representative CDK9-positive tumor cell lines for further determination of the compound activity. All cell lines used came from ATCC, JCRB, DSMZ and Chinese Academy of Sciences Cell Bank (ZK). Cell culture condition and method were based on the requirements of each cell line. No more than 3 passages were carried out in each culture in vitro. Monoclonal purification and STR identification of the cell line were conducted if necessary.

[3] = tested on: B-CPAP; test: as above; format: cell-based; details: BCPAP, Human thyroid cancer, read-out: Inhibitory activity (IC50) on growth in vitro, B-CPAP
Experimental: as §1, §2

[4] = tested on: BT-474; test: as above; format: cell-based; details: Human breast cancer, read-out: Inhibitory activity (IC50) on growth in vitro, BT-474
Experimental: as §1, §2

[5] = tested on: BT-549; test: as above; format: cell-based; details: Human breast cancer, read-out: Inhibitory activity (IC50) on growth in vitro, BT-549
Experimental: as §1, §2

[6] = tested on: DU-145; test: as above; format: cell-based; details: Human prostate cancer, read-out: Inhibitory activity (IC50) on growth in vitro, DU-145
Experimental: as §1, §2

[7] = tested on: HCC1954; test: as above; format: cell-based; details: Human breast cancer, read-out: Inhibitory activity (IC50) on growth in vitro, HCC1954
Experimental: as §1, §2

[8] = tested on: HO8910PM; test: as above; format: cell-based; details: Human ovarian cancer, read-out: Inhibitory activity (IC50) on growth in vitro, HO8910PM
Experimental: as §1, §2

[9] = tested on: JIMT-1; test: as above; format: cell-based; details: Human breast cancer, read-out: Inhibitory activity (IC50) on growth in vitro, JIMT-1
Experimental: as §1, §2

[10] = tested on: KYSE70; test: as above; format: cell-based; details: KYSE-70, Human esophageal cancer, read-out: Inhibitory activity (IC50) on growth in vitro, KYSE70
Experimental: as §1, §2

[11] = tested on: Kasumi-1; test: as above; format: cell-based; details: Human acute myeloid leukemia, read-out: Inhibitory activity (IC50) on growth in vitro, Kasumi-1
Experimental: as §1, §2

[12] = tested on: LN229; test: as above; format: cell-based; details: LN-229, Human glioma, read-out: Inhibitory activity (IC50) on growth in vitro, LN229
Experimental: as §1, §2

[13] = tested on: MFM-223; test: as above; format: cell-based; details: Human breast cancer, read-out: Inhibitory activity (IC50) on growth in vitro, MFM-223
Experimental: as §1, §2

[14] = tested on: NCI-H1703; test: as above; format: cell-based; details: Human lung cancer, read-out: Inhibitory activity (IC50) on growth in vitro, NCI-H1703
Experimental: as §1, §2

[15] = tested on: NCI-H1781; test: as above; format: cell-based; details: Human lung cancer, read-out: Inhibitory activity (IC50) on growth in vitro, NCI-H1781
Experimental: as §1, §2

[16] = tested on: NCI-H1975; test: as above; format: cell-based; details: Human lung cancer, read-out: Inhibitory activity (IC50) on growth in vitro, NCI-H1975
Experimental: as §1, §2

[17] = tested on: NCI-H358; test: as above; format: cell-based; details: Human lung cancer, read-out: Inhibitory activity (IC50) on growth in vitro, NCI-H358
Experimental: as §1, §2

[18] = tested on: NCI-H460; test: as above; format: cell-based; details: Human lung cancer, read-out: Inhibitory activity (IC50) on growth in vitro, NCI-H460
Experimental: as §1, §2

[19] = tested on: PC-9; test: as above; format: cell-based; details: Human lung cancer, read-out: Inhibitory activity (IC50) on growth in vitro, PC-9
Experimental: as §1, §2

[20] = tested on: Pfeiffer; test: as above; format: cell-based; details: Human B lymphocyte tumor, read-out: Inhibitory activity (IC50) on growth in vitro, Pfeiffer
Experimental: as §1, §2

[21] = tested on: SK-BR-3; test: as above; format: cell-based; details: Human breast cancer, read-out: Inhibitory activity (IC50) on growth in vitro, SK-BR-3
Experimental: as §1, §2

[22] = tested on: SK-MEL-28; test: as above; format: cell-based; details: Human melanoma, read-out: Inhibitory activity (IC50) on growth in vitro, SK-MEL-28
Experimental: as §1, §2

[23] = tested on: A549; test: as above; format: cell-based, Human
Experimental: as §1, §2

[24] = tested on: AN3-CA; test: as above; format: cell-based; details: Human endometrial cancer, read-out: Inhibitory activity (IC50) on growth in vitro, AN3-CA
Description: Test Example 3. Measurement of the Inhibitory Activity of the Present Compound on the Growth of Various Types of CDK9-Positive Tumor Cell Lines In Vitro
as §2, with “Tumor cell line is an effective cell model for studying the inhibitory activity of a drug on tumor growth in vitro. The” for “The”
Drug treatment, MTT assay and IC50 calculation were performed in accordance with Test Example 1.

[25] = Human lung cancer, A549, read-out: Inhibitory activity (IC50) on growth in vitro, A549

Structure (SMILES) | IC50 [2] | IC50 [3] | IC50 [4] | IC50 [5] | IC50 [6] | IC50 [7] | IC50 [8] | IC50 [9] | IC50 [10] | IC50 [11] | IC50 [12] | IC50 [13] | IC50 [14] | IC50 [15] | IC50 [16] | IC50 [17] | IC50 [18] | IC50 [19] | IC50 [20] | IC50 [21] | other results
CCN1CCN(c2cccc(Nc3ncc(F)c(-n4cc(C(N)=O)c5cc(OC)ccc54)n3)c2)CC1 [Compound 152, 1-{2-[3-(4-ethyl-piperazin-1-yl)-phenylamino]-5-fluoro-pyrimidin-4-yl}-5-methoxy-1H-indole-3-carboxamide] | 1 to 10 nM | 1 to 10 nM | < 1 nM | < 1 nM | 1 to 10 nM | < 1 nM | < 1 nM | < 1 nM | 1 to 10 nM | 1 to 10 nM | 1 to 10 nM | < 1 nM | < 1 nM | < 1 nM | 1 to 10 nM | 1 to 10 nM | 1 to 10 nM | 1 to 10 nM | < 1 nM | < 1 nM | IC50 [1]: < 1 nM; IC50 [22]: 1 to 10 nM; IC50 ([23]; Homo sapiens, A549, read-out: Inhibitory activity (IC50) on growth in vitro, A549): 1 to 10 nM; IC50 [24]: < 1 nM
NC(=O)c1cn(-c2nc(Nc3cccc(N4CCN(C5CCOCC5)CC4)c3)ncc2F)c2ccccc12 [Compound 140, 1-(5-fluoro-2-{3-[4-(tetrahydro-pyran-4-yl)-piperazin-1-yl]-phenylamino}-pyrimidin-4-yl)-1H-indole-3-carboxamide] | 1 to 10 nM | < 1 nM | < 1 nM | < 1 nM | < 1 nM | < 1 nM | < 1 nM | < 1 nM | 1 to 10 nM | 1 to 10 nM | 1 to 10 nM | < 1 nM | < 1 nM | < 1 nM | 1 to 10 nM | 1 to 10 nM | 1 to 10 nM | 1 to 10 nM | < 1 nM | < 1 nM | IC50 [22]: 1 to 10 nM; IC50 [23, 25]: 1 to 10 nM; IC50 [24]: < 1 nM

More lines, main results first:

IC50 [2] | IC50 [3] | IC50 [4] | IC50 [5] | IC50 [6] | IC50 [7] | IC50 [8] | IC50 [9] | IC50 [10] | IC50 [11] | IC50 [12] | IC50 [13] | IC50 [14] | IC50 [15] | IC50 [16] | IC50 [17] | IC50 [18] | IC50 [19] | IC50 [20] | IC50 [21] | Structure (SMILES) | other results
1 to 10 nM | < 1 nM | < 1 nM | < 1 nM | < 1 nM | < 1 nM | < 1 nM | < 1 nM | 1 to 10 nM | < 1 nM | < 1 nM | < 1 nM | < 1 nM | < 1 nM | 1 to 10 nM | 1 to 10 nM | 1 to 10 nM | 1 to 10 nM | < 1 nM | < 1 nM | CC(C)N1CCN(c2cccc(Nc3ncc(F)c(-n4cc(C(N)=O)c5ccccc54)n3)c2)CC1 [Compound 144, 1-{5-fluoro-2-[3-(4-isopropyl-piperazin-1-yl)-phenylamino]-pyrimidin-4-yl}-1H-indole-3-carboxamide] | IC50 [22]: 1 to 10 nM; IC50 [23, 25]: 1 to 10 nM; IC50 [24]: < 1 nM
1 to 10 nM | 1 to 10 nM | < 1 nM | < 1 nM | 1 to 10 nM | < 1 nM | < 1 nM | < 1 nM | 1 to 10 nM | 1 to 10 nM | 1 to 10 nM | < 1 nM | < 1 nM | < 1 nM | 1 to 10 nM | 1 to 10 nM | 1 to 10 nM | 1 to 10 nM | < 1 nM | < 1 nM | CCN1CCN(c2cccc(Nc3ncc(F)c(-n4cc(C(N)=O)c5cc(F)ccc54)n3)c2)CC1 [Compound 161, 1-{2-[3-(4-ethyl-piperazin-1-yl)-phenylamino]-5-fluoro-pyrimidin-4-yl}-5-fluoro-1H-indole-3-carboxamide] | IC50 [1]: < 1 nM; IC50 [22]: 1 to 10 nM; IC50 [23, 25]: 1 to 10 nM
100 to 1000 nM | 10 to 100 nM | 10 to 100 nM | 10 to 100 nM | 10 to 100 nM | 1 to 10 nM | 10 to 100 nM | 10 to 100 nM | 100 to 1000 nM | 1 to 10 nM | 100 to 1000 nM | 10 to 100 nM | 10 to 100 nM | 10 to 100 nM | 100 to 1000 nM | 100 to 1000 nM | 100 to 1000 nM | 100 to 1000 nM | 10 to 100 nM | 1 to 10 nM | Cc1cc(Nc2ncc(Cl)c(-n3cc(C(N)=O)c4ccccc43)n2)ccc1N1CCN(C(C)C)CC1 [Compound 60, 1-{5-chloro-2-[4-(4-isopropyl-piperazin-1-yl)-3-methyl-phenylamino]-pyrimidin-4-yl}-1H-indole-3-carboxamide] | IC50 [1]: 1 to 10 nM; IC50 [22]: 100 to 1000 nM
